Where two headings read alike, the source gives them in different places.

In series [1] the target is T1, full-length beta-Catenin (Uniprot ID P35222) (Homo sapiens, UniProt P35222).
T1 construct: 10 nM full-length beta-Catenin (Uniprot ID P35222)
T1 sequence (P35222 1-781): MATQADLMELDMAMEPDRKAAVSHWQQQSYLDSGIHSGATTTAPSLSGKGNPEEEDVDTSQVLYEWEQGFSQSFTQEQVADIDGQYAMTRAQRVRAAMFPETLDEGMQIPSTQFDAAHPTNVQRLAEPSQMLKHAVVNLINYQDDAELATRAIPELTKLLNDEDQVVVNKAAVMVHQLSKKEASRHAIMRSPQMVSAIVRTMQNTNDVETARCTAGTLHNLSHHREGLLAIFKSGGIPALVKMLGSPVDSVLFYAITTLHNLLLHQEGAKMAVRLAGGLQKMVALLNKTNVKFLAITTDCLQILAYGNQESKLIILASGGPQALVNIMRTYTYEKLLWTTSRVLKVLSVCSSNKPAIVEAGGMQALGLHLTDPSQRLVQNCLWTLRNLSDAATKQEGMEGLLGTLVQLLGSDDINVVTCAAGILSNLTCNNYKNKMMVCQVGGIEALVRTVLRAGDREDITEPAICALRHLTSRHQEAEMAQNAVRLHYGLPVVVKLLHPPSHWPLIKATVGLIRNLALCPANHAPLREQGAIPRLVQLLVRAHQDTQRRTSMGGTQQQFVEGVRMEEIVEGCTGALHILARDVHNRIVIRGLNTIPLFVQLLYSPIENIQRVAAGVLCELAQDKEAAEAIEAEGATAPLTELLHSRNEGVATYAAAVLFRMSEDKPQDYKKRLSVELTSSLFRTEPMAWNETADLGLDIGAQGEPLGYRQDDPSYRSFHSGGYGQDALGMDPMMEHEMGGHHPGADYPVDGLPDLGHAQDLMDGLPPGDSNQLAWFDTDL
The series can be described thus: Fluorescence polarization IC50 (beta-catenin / 5FAM-TCF4 10-53 competition). It counts as binding.

Series [2] in a line: CHI Log D procedure. The conditions noted are these: for CHI Log D: pH 7.4. The series is classed as physicochemical.
The mark [3] stands for this setting: fluorescence polarization, read-out: beta-Catenin FP IC50.

On to `CC(=O)N1CCC[C@]12CC=CCCCC1(CCCC=CCCCCCC[C@@](C)(C(=O)N[C@@H](Cc3ccccc3)C(=O)N[C@@H](Cc3csc4ccccc34)C(=O)N[C@@H](CCC(N)=O)C(=O)N[C@@H](C)C(N)=O)NC(=O)[C@H](CC(N)=O)NC(=O)[C@H](Cc3ccccc3)NC(=O)[C@H](C)NC(=O)[C@H](C)NC(=O)[C@H](CCC(=O)O)NC(=O)[C@H](CC(=O)O)NC1=O)NC(=O)[C@H](CC(C)C)NC(=O)[C@H](CC(=O)O)NC2=O` (stereo partly drawn) [I-729, Ac-PL3-Asp-Leu-B5-Asp-Glu-Ala-Ala-Phe-Asn-S8-Phe-BztA-Gln-Ala-NH2], for which the IC50 in series [1] (setting [3]) and in series [1] (read-out: FP EC50) was 0.056 µM throughout. Also, the “CHI Log D” value in series [2] turned out to be 2.366.

`CC[C@H](C)[C@H](NC(=O)[C@H](CCC(N)=O)NC(=O)[C@H](Cc1csc2ccccc12)NC(=O)[C@H](Cc1ccccc1)NC(=O)[C@]1(C)CCCCCCC=CCCCC2(CCCC=CC[C@]3(CCCN3C(C)=O)C(=O)N[C@@H](CC(=O)O)C(=O)N[C@@H](CC(C)C)C(=O)N2)C(=O)N[C@@H](CC(=O)O)C(=O)N[C@@H](CCC(=O)O)C(=O)N[C@@H](C)C(=O)N[C@@H](C)C(=O)N[C@@H](Cc2ccccc2)C(=O)N[C@@H](CC(N)=O)C(=O)N1)C(N)=O` (stereo partly drawn) [I-732, Ac-PL3-Asp-Leu-B5-Asp-Glu-Ala-Ala-Phe-Asn-S8-Phe-BztA-Gln-Ile-NH2]: the IC50 in series [1] (setting [3]) and in series [1] (read-out: FP EC50) was 4.22 µM throughout. For the same compound, in series [2], the “CHI Log D” value is on record as 2.121.

Consider `CC[C@@H](C)[C@@H](NC(=O)[C@H](CCC(N)=O)NC(=O)[C@H](Cc1csc2ccccc12)NC(=O)[C@H](Cc1ccccc1)NC(=O)[C@]1(C)CCCCCCC=CCCCC2(CCCC=CC[C@]3(CCCN3C(C)=O)C(=O)N[C@@H](CC(=O)O)C(=O)N[C@@H](CC(C)C)C(=O)N2)C(=O)N[C@@H](CC(=O)O)C(=O)N[C@@H](CCC(=O)O)C(=O)N[C@@H](C)C(=O)N[C@@H](C)C(=O)N[C@@H](Cc2ccccc2)C(=O)N[C@@H](CC(N)=O)C(=O)N1)C(N)=O` (stereo partly drawn) [I-734, Ac-PL3-Asp-Leu-B5-Asp-Glu-Ala-Ala-Phe-Asn-S8-Phe-BztA-Gln-dIle-NH2], for which the IC50 in series [1] (setting [3]) and in series [1] (read-out: FP EC50) was 0.37 µM each time. Further, in series [2], the “CHI Log D” value amounted to 2.713.

Regarding `CC(=O)N1CCC[C@]12CC=CCCCC1(CCCC=CCCCCCC[C@@](C)(C(=O)N[C@@H](Cc3ccccc3)C(=O)N[C@@H](Cc3csc4ccccc34)C(=O)N[C@@H](CCC(N)=O)C(=O)NC(C)(C)C(N)=O)NC(=O)[C@H](CC(N)=O)NC(=O)[C@H](Cc3ccccc3)NC(=O)[C@H](C)NC(=O)[C@H](C)NC(=O)[C@H](CCC(=O)O)NC(=O)[C@H](CC(=O)O)NC1=O)NC(=O)[C@H](CC(C)C)NC(=O)[C@H](CC(=O)O)NC2=O` (stereo partly drawn) [I-736, Ac-PL3-Asp-Leu-B5-Asp-Glu-Ala-Ala-Phe-Asn-S8-Phe-BztA-Gln-Aib-NH2], the IC50 in series [1] (setting [3]) and in series [1] (read-out: FP EC50) was 0.44 µM throughout. Moreover, the “CHI Log D” value in series [2] was 2.722.

Regarding `CC[C@H](C)[C@H](NC(=O)[C@H](Cc1c[nH]cn1)NC(=O)[C@H](Cc1csc2ccccc12)NC(=O)[C@H](Cc1ccccc1)NC(=O)[C@]1(C)CCCCCCC=CCCCC2(CCCC=CC[C@]3(CCCN3C(C)=O)C(=O)N[C@@H](CC(=O)O)C(=O)N[C@@H](CC(C)C)C(=O)N2)C(=O)N[C@@H](CC(=O)O)C(=O)N[C@@H](CCC(=O)O)C(=O)N[C@@H](C)C(=O)N[C@@H](C)C(=O)N[C@@H](Cc2ccccc2)C(=O)N[C@@H](CC(N)=O)C(=O)N1)C(N)=O` (stereo partly drawn) [I-740, Ac-PL3-Asp-Leu-B5-Asp-Glu-Ala-Ala-Phe-Asn-S8-Phe-BztA-His-Ile-NH2], the IC50 in series [1] (setting [3]) and in series [1] (read-out: FP EC50) was 0.376 µM throughout. For the same compound, the “CHI Log D” value in series [2] was found to be 2.822.

With `CC(=O)N1CCC[C@]12CC=CCCCC1(CCCC=CCCCCCC[C@@](C)(C(=O)N[C@@H](Cc3ccccc3)C(=O)N[C@@H](Cc3csc4ccccc34)C(=O)N[C@H](Cc3c[nH]cn3)C(N)=O)NC(=O)[C@H](CC(N)=O)NC(=O)[C@H](Cc3ccccc3)NC(=O)[C@H](C)NC(=O)[C@H](C)NC(=O)[C@H](CCC(=O)O)NC(=O)[C@H](CC(=O)O)NC1=O)NC(=O)[C@H](CC(C)C)NC(=O)[C@H](CC(=O)O)NC2=O` (stereo partly drawn) [I-744, Ac-PL3-Asp-Leu-B5-Asp-Glu-Ala-Ala-Phe-Asn-S8-Phe-BztA-dHis-NH2], the IC50 in series [1] (setting [3]) and in series [1] (read-out: FP EC50) was 0.112 µM each time. The “CHI Log D” value in series [2] stood at 2.557.

For the compound `CC(=O)N1CCC[C@]12CC=CCCCC1(CCCC=CCCCCCC[C@@](C)(C(=O)N[C@@H](Cc3ccccc3)C(=O)N[C@@H](Cc3csc4ccccc34)C(=O)N[C@H](C(N)=O)[C@@H](C)O)NC(=O)[C@H](CC(N)=O)NC(=O)[C@H](Cc3ccccc3)NC(=O)[C@H](C)NC(=O)[C@H](C)NC(=O)[C@H](CCC(=O)O)NC(=O)[C@H](CC(=O)O)NC1=O)NC(=O)[C@H](CC(C)C)NC(=O)[C@H](CC(=O)O)NC2=O` (stereo partly drawn) [I-748, Ac-PL3-Asp-Leu-B5-Asp-Glu-Ala-Ala-Phe-Asn-S8-Phe-BztA-Thr-NH2], the IC50 in series [1] (setting [3]) and in series [1] (read-out: FP EC50) was 0.054 µM each time. Further, the “CHI Log D” value in series [2] came out at 2.459.

On to `CC(=O)N1CCC[C@]12CC=CCCCC1(CCCC=CCCCCCC[C@@](C)(C(=O)N[C@@H](Cc3ccccc3)C(=O)N[C@@H](Cc3csc4ccccc34)C(=O)N[C@@H](C(N)=O)[C@H](C)O)NC(=O)[C@H](CC(N)=O)NC(=O)[C@H](Cc3ccccc3)NC(=O)[C@H](C)NC(=O)[C@H](C)NC(=O)[C@H](CCC(=O)O)NC(=O)[C@H](CC(=O)O)NC1=O)NC(=O)[C@H](CC(C)C)NC(=O)[C@H](CC(=O)O)NC2=O` (stereo partly drawn) [I-754, Ac-PL3-Asp-Leu-B5-Asp-Glu-Ala-Ala-Phe-Asn-S8-Phe-BztA-dThr-NH2], for which the IC50 in series [1] (read-out: FP EC50) and in series [1] (read-out: beta-Catenin FP IC50) was 0.115 µM in each case. For the same compound, the “CHI Log D” value in series [2] amounted to 2.666.

As to `CC(=O)N1CCC[C@]12CC=CCCCC1(CCCC=CCCCCCC[C@@](C)(C(=O)N[C@@H](Cc3ccccc3)C(=O)N[C@@H](Cc3csc4ccccc34)C(=O)N[C@H](CC(N)=O)C(N)=O)NC(=O)[C@H](CC(N)=O)NC(=O)[C@H](Cc3ccccc3)NC(=O)[C@H](C)NC(=O)[C@H](C)NC(=O)[C@H](CCC(=O)O)NC(=O)[C@H](CC(=O)O)NC1=O)NC(=O)[C@H](CC(C)C)NC(=O)[C@H](CC(=O)O)NC2=O` (stereo partly drawn) [I-757, Ac-PL3-Asp-Leu-B5-Asp-Glu-Ala-Ala-Phe-Asn-S8-Phe-BztA-dAsn-NH2], the IC50 in series [1] (read-out: FP EC50) and in series [1] (read-out: beta-Catenin FP IC50) was 0.064 µM throughout. For the same compound, the “CHI Log D” value in series [2] is listed as 2.546.

Consider `CC(=O)N1CCC[C@]12CC=CCCCC1(CCCC=CCCCCCC[C@@](C)(C(=O)N[C@@H](Cc3ccccc3)C(=O)N[C@@H](Cc3csc4ccccc34)C(=O)N(C)[C@@H](CO)C(N)=O)NC(=O)[C@H](CC(N)=O)NC(=O)[C@H](Cc3ccccc3)NC(=O)[C@H](C)NC(=O)[C@H](C)NC(=O)[C@H](CCC(=O)O)NC(=O)[C@H](CC(=O)O)NC1=O)NC(=O)[C@H](CC(C)C)NC(=O)[C@H](CC(=O)O)NC2=O` (stereo partly drawn) [I-759, Ac-PL3-Asp-Leu-B5-Asp-Glu-Ala-Ala-Phe-Asn-S8-Phe-BztA-NMeS-NH2], for which the IC50 in series [1] (read-out: FP EC50) and in series [1] (read-out: beta-Catenin FP IC50) was 1.53 µM each time. Also, the “CHI Log D” value in series [2] is 2.582.

Turning to `CC(=O)N1CCC[C@]12CC=CCCCC1(CCCC=CCCCCCC[C@@](C)(C(=O)N[C@@H](Cc3ccccc3)C(=O)N[C@@H](Cc3csc4ccccc34)C(=O)N(C)[C@@H](CO)C(N)=O)NC(=O)[C@H](CC(N)=O)NC(=O)[C@H](Cc3ccccc3)NC(=O)[C@H](C)NC(=O)[C@H](C)NC(=O)[C@H](CCC(=O)O)NC(=O)[C@H](CC(=O)O)NC1=O)NC(=O)[C@H](CC(C)C)NC(=O)[C@H](CC(=O)O)NC2=O` (stereo partly drawn) [I-760, Ac-PL3-Asp-Leu-B5-Asp-Glu-Ala-Ala-Phe-Asn-S8-Phe-BztA-NMeS-NH2], the IC50 in series [1] (read-out: FP EC50) and in series [1] (read-out: beta-Catenin FP IC50) was 0.608 µM in each case. The “CHI Log D” value in series [2] turned out to be 2.66.

In the case of `CC(=O)N1CCC[C@]12CC=CCCCC1(CCCC=CCCCOC(=O)N3CC[C@@](C(=O)N[C@@H](Cc4ccsc4)C(=O)N[C@@H](Cc4csc5ccccc45)C(=O)N[C@@H](CCC(N)=O)C(N)=O)(C3)NC(=O)[C@H](CCC(N)=O)NC(=O)[C@H](Cc3ccccc3)NC(=O)[C@H](C)NC(=O)[C@H](C)NC(=O)[C@H](CC(=O)O)NC(=O)[C@H](CC(=O)O)NC1=O)NC(=O)[C@H](CC(C)(C)C)NC(=O)[C@H](CC(=O)O)NC2=O` (stereo partly drawn) [I-763, Ac-PL3-Asp-Npg-B5-Asp-Asp-Ala-Ala-Phe-Gln-PyrS2-3Thi-BztA-Gln-NH2], the IC50 in series [1] (read-out: beta-Catenin FP IC50) amounted to 0.005 µM. Further, the “CHI Log D” value in series [2] is listed as 1.967.

Regarding `CC(=O)N1CCC[C@]12CC=CCCCC1(CCCC=CCCCOC(=O)N3CC[C@@](C(=O)N[C@@H](Cc4ccsc4)C(=O)N[C@@H](Cc4c[nH]c5cc(Cl)ccc45)C(=O)N[C@@H](Cc4c[nH]cn4)C(N)=O)(C3)NC(=O)[C@H](CC(N)=O)NC(=O)[C@H](Cc3ccccc3)NC(=O)[C@H](C)NC(=O)[C@H](C)NC(=O)[C@H](CC(=O)O)NC(=O)[C@H](CC(=O)O)NC1=O)NC(=O)[C@H](CC(C)(C)C)NC(=O)[C@H](CC(=O)O)NC2=O` (stereo partly drawn) [I-798, Ac-PL3-Asp-Npg-B5-Asp-Asp-Ala-Ala-Phe-Asn-PyrS2-3Thi-6C1W-His-NH2], in series [1] (read-out: beta-Catenin FP IC50), the IC50 stood at 0.106 µM. Moreover, in series [2] (pH 7.4, CHI Log D), the chromatographic logD was 2.07.

These data come from US20240116985A1, “STAPLED PEPTIDES AND METHODS THEREOF” (priority 2020, published 2024).
